Measured values reported in ChEMBL document CHEMBL5506027, “Discovery of a Novel and Potent Cyclin-Dependent Kinase 8/19 (CDK8/19) Inhibitor for the Treatment of Cancer” (J Med Chem, 2024).
Values belong to the compound of their own block, whether it stands above or below them. Activity calls are given as the source filed them. The calls are words filed in the database; no cut-off is given here.

Key:
[1] = Selectivity ratio of IC50 for CDK2/CyclinA2 (unknown origin) to IC50 for CDK8/Cyclin C (unknown origin)
[2] = Selectivity ratio of IC50 for CDK5/p25NCK (unknown origin) to IC50 for CDK8/Cyclin C (unknown origin)
[3] = Selectivity ratio of IC50 for CDK5/p35NCK (unknown origin) to IC50 for CDK8/Cyclin C (unknown origin)
[4] = Dose normalized AUC in mouse at 5 mg/kg, po measured upto 24 hrs by LC-MS/MS analysis; format: ADME, organism-based; conditions: in vivo
[5] = Tmax in rat at 5 mg/kg, po measured upto 24 hrs by LC-MS/MS analysis; format: ADME, organism-based; conditions: in vivo
[6] = AUC(0 to 24 hrs) in rat at 5 mg/kg, po measured upto 24 hrs by LC-MS/MS analysis; format: ADME, organism-based; conditions: in vivo
[7] = Cmax in dog at 3 mg/kg, po measured upto 24 hrs by LC-MS/MS analysis; format: ADME, organism-based, Canis lupus familiaris; conditions: in vivo
[8] = AUC(0 to 24 hrs) in dog at 3 mg/kg, po measured upto 24 hrs by LC-MS/MS analysis; format: ADME, organism-based, Canis lupus familiaris; conditions: in vivo
[9] = Dose normalized AUC in dog at 3 mg/kg, po measured upto 24 hrs by LC-MS/MS analysis; format: ADME, organism-based, Canis lupus familiaris; conditions: in vivo
[10] = target: CDK8/Cyclin C (Homo sapiens, UniProt P49336); assay: Displacement of tracer 236 from CDK8/cyclin C (unknown origin) preincubated for 15 mins followed by tracer addition and measured after 60 mins by FRET based lanthascreen assay; format: protein-complex assay
[11] = target: CDK12/Cyclin K (Homo sapiens) (UniProt O75909+Q9NYV4); assay: Inhibition of CDK12/cyclinK (unknown origin) at 1 uM by luminescence based assay relative to control; format: protein-complex assay
[12] = target: Cyclin-Y/Cyclin-dependent kinase 16 (Homo sapiens) (UniProt Q00536+Q8ND76); assay: Inhibition of CDK16/cyclinY (unknown origin) at 1 uM by luminescence based assay relative to control; format: protein-complex assay
[13] = target: CDK9/cyclin T1 (Homo sapiens) (UniProt O60563+P50750); assay: Inhibition of CDK9/cyclinT1 (unknown origin) at 1 uM by luminescence based assay relative to control; format: protein-complex assay
[14] = target: CDK3/Cyclin E (Homo sapiens) (UniProt P24864+Q00526); assay: Inhibition of CDK3/cyclinE1 (unknown origin) at 1 uM by luminescence based assay relative to control; format: protein-complex assay
[15] = target: CDK6/cyclin D1 (Homo sapiens) (UniProt P24385+Q00534); assay: Inhibition of CDK6/cyclinD1 (unknown origin) at 1 uM by luminescence based assay relative to control; format: protein-complex assay
[16] = target: CDK6/cyclin D3 (Homo sapiens) (UniProt P30281+Q00534); assay: Inhibition of CDK6/cyclinD3 (unknown origin) at 1 uM by luminescence based assay relative to control; format: protein-complex assay
[17] = AUC(0 to 24 hrs) in mouse at 30 mg/kg, po measured upto 24 hrs by LC-MS/MS analysis; format: ADME, organism-based; conditions: in vivo
[18] = Oral bioavailability in mouse at 30 mg/kg measured upto 24 hrs by LC-MS/MS analysis; format: ADME, organism-based; conditions: in vivo
[19] = Cmax in rat at 10 mg/kg, po measured upto 24 hrs by LC-MS/MS analysis; format: ADME, organism-based; conditions: in vivo
[20] = Tmax in dog at 5 mg/kg, po measured upto 24 hrs by LC-MS/MS analysis; format: ADME, organism-based, Canis lupus familiaris; conditions: in vivo
[21] = Oral bioavailability in dog at 5 mg/kg measured upto 24 hrs by LC-MS/MS analysis; format: ADME, organism-based, Canis lupus familiaris; conditions: in vivo
[22] = Tmax in monkey at 5 mg/kg, po measured upto 24 hrs by LC-MS/MS analysis; format: ADME, organism-based, Macaca mulatta; conditions: rhesus monkey, in vivo
[23] = Clearance in monkey at 1 mg/kg, iv measured upto 24 hrs by LC-MS/MS anlaysis; format: ADME, organism-based, Macaca mulatta; conditions: rhesus monkey, in vivo
[24] = Volume of distribution at steady state in monkey at 1 mg/kg, iv measured upto 24 hrs by LC-MS/MS anlaysis; format: ADME, organism-based, Macaca mulatta; conditions: rhesus monkey, in vivo, read-out: Vdss
[25] = Half-life in monkey at 1 mg/kg, iv measured upto 24 hrs by LC-MS/MS anlaysis; format: ADME, organism-based, Macaca mulatta; conditions: rhesus monkey, in vivo
[26] = tested on: MV4-11; assay: Antitumor activity against human MV4-11 cells xenografted in BALB/c nude mouse assessed as tumor growth inhibition at 3 mg/kg, po qd and measured twice a week for 3 weeks; format: functional; conditions: MV4-11, 504 h, read-out: TGI
[27] = tested on: MV4-11; assay: Antitumor activity against human MV4-11 cells xenografted in BALB/c nude mouse assessed as tumor growth inhibition at 10 mg/kg, po qd and measured twice a week for 3 weeks; format: functional; conditions: MV4-11, 504 h, read-out: TGI
[28] = tested on: MDA-MB-468; assay: Antitumor activity against human MDA-MB-468 cells xenografted in BALB/c nude mouse assessed as tumor growth inhibition at 3 mg/kg, po qd and measured twice a week for 3 weeks; format: functional, organism-based
[29] = tested on: MDA-MB-468; assay: Synergistic antitumor activity against human MDA-MB-468 cells xenografted in BALB/c nude mouse assessed as tumor growth inhibition at 3 mg/kg, ip qd and measured twice a week for 3 weeks in presence of carboplatin; format: functional; conditions: MDA-MB-468, 504 h, read-out: TGI
[30] = Toxicity in BALB/c nude mouse xenografted with human MV4-11 cells assessed as change in body weight at 3 mg/kg, ip qd and measured twice a week for 3 weeks in presence of carboplatin; format: organism-based; conditions: in vivo, 504 h
[31] = Toxicity in CB17 SCID mouse xenografted with human Z138 cells assessed as change in body weight at 2.5 to 5 mg/kg, po qd for 3 weeks in presence of rituximab; format: organism-based; conditions: in vivo, 504 h, dose 2.5-5 mg/kg

CDK8/Cyclin C, sequence (P49336 whole entry): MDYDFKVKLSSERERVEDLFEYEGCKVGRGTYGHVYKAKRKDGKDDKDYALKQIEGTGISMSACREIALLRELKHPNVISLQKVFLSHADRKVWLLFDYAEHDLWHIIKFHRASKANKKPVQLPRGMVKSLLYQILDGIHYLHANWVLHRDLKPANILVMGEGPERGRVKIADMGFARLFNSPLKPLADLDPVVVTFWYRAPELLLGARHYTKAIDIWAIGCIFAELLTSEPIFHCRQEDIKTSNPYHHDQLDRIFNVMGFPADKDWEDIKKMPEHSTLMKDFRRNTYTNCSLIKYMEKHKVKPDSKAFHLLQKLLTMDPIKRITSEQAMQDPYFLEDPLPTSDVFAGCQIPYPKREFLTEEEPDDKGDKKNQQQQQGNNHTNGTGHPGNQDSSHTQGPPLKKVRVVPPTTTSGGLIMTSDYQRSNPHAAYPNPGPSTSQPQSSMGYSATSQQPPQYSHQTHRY
CDK8/Cyclin C, sequence (P24863 whole entry, further chain): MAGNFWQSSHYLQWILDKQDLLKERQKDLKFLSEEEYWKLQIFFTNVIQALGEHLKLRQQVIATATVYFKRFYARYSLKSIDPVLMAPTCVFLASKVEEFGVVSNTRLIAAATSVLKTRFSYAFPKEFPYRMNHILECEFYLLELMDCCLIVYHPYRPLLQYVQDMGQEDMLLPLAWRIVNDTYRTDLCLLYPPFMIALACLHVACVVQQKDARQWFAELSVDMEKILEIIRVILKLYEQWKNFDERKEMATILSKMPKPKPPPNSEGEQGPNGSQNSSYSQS
CDK12/Cyclin K (Homo sapiens), sequence (O75909 whole entry, looked up): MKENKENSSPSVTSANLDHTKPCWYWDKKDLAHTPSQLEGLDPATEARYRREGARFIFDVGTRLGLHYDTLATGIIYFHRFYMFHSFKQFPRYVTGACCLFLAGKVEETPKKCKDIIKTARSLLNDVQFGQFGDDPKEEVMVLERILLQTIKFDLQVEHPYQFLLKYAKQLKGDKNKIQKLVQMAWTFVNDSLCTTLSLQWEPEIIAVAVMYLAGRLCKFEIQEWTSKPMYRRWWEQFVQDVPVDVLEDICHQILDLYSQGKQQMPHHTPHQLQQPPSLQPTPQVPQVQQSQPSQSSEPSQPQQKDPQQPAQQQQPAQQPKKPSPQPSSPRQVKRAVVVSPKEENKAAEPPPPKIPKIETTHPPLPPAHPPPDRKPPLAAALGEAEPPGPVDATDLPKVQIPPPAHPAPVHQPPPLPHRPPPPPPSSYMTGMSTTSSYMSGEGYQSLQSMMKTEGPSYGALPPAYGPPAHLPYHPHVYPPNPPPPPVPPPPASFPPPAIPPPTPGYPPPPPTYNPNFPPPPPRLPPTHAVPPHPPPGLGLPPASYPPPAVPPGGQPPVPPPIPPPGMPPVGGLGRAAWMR
CDK12/Cyclin K (Homo sapiens), sequence (Q9NYV4 whole entry, looked up): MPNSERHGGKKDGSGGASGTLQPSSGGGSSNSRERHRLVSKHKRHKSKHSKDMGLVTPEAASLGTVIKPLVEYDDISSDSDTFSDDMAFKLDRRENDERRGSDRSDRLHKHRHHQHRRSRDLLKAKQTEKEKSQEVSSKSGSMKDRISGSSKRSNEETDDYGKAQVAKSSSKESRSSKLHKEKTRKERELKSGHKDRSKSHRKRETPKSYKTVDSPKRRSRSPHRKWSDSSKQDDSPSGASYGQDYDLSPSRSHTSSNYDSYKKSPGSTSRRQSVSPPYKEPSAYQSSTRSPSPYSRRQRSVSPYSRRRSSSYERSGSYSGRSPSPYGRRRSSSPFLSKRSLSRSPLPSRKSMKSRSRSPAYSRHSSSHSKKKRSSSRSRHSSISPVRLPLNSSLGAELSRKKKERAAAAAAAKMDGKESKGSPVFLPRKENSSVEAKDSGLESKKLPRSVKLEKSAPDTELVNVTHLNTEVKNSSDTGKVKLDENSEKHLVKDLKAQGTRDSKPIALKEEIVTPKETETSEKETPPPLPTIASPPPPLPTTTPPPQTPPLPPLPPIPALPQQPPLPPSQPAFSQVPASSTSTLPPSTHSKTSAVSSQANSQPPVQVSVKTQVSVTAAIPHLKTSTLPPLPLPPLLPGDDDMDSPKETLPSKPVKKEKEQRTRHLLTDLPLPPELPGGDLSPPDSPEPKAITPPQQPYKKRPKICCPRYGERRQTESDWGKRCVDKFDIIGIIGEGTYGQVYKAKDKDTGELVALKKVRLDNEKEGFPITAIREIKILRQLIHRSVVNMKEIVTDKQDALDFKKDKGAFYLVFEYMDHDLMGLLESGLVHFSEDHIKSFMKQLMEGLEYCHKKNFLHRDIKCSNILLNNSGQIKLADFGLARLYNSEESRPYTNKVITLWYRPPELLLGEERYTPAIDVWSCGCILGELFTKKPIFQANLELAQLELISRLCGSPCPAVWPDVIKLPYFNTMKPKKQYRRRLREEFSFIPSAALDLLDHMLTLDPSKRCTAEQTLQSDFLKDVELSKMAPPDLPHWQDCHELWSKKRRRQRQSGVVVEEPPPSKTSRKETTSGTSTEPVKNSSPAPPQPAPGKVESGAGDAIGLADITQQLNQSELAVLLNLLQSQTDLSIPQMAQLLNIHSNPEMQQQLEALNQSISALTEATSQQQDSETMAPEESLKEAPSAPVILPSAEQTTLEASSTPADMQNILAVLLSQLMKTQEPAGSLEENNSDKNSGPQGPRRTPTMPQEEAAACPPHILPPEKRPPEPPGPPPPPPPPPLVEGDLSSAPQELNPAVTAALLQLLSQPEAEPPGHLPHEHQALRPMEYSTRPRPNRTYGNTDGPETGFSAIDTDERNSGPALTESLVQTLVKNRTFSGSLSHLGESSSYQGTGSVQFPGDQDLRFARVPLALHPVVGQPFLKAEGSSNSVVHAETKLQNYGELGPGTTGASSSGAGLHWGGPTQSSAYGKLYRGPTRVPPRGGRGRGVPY
CDK3/Cyclin E (Homo sapiens), sequence (P24864 whole entry, looked up): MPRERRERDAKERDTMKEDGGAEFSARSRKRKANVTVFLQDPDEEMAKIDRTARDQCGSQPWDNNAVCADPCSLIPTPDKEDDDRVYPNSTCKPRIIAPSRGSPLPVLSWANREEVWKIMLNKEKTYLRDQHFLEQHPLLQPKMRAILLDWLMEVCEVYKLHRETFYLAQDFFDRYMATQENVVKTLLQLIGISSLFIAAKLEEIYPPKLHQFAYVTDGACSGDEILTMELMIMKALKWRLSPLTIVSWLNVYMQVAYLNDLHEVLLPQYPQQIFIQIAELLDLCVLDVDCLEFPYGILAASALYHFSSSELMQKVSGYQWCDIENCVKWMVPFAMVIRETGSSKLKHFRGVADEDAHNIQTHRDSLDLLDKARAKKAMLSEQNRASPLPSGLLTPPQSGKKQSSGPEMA
CDK3/Cyclin E (Homo sapiens), sequence (Q00526 whole entry, looked up): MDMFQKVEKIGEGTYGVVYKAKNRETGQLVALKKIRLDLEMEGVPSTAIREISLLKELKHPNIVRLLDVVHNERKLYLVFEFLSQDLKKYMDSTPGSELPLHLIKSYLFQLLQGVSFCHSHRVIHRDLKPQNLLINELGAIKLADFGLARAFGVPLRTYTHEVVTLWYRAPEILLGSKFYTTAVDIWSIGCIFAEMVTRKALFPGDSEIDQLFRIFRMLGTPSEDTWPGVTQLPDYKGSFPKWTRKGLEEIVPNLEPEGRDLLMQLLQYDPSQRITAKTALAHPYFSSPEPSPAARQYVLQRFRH

Ratio IC50 [1]: 0.3 | Ratio IC50 [2]: 0.1 | Ratio IC50 [3]: 0.1 | AUC/dose [4]: 270 ng·h/mL | Tmax [5]: 1.67 h | AUC(0-t) at 24 h [6]: 56 ng·h/mL | Cmax [7]: 215 ng/mL | AUC(0-t) at 24 h [8]: 2060 ng·h/mL | AUC/dose [9]: 685 ng·h/mL
SMILES: Cc1c(Br)c(Br)c2c3c1nc(N1CCNCC1)n3CCC2 [SEL-120 FREE BASE]

IC50 [10]: 2.1 nM | inhibition [11]: 69.6% | inhibition [12]: 64.1% | inhibition [13]: 59.3% | inhibition [14]: 45.4% | inhibition [15]: 19.4% | inhibition [16]: 2.33% | AUC(0-t) at 24 h [17]: 23900 ng·h/mL | bioavailability [18]: 67% | Cmax [19]: 190 ng/mL | Tmax [20]: 2 h | bioavailability [21]: 85% | Tmax [22]: 4 h | clearance [23]: 13 mL/min/kg | Vd [24]: 7.05 L/kg | half-life [25]: 7 h
SMILES: FC(F)c1c(Br)c(Br)cc2c1nc(N1CCNCC1)n2C1CCOCC1
inhibition in vivo at 3 mg/kg [26]: 29% | inhibition in vivo at 10 mg/kg [27]: 36% | Activity [28]: inactive | inhibition in vivo at 3 mg/kg [29]: 66% | Activity [30]: Non-Toxic | Activity [31]: Non-Toxic
